In ChEMBL document CHEMBL1201862, “PubChem BioAssay data set” (2004):
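How tested: cells in 96-well plates exposed to compound for 48 hours at five concentrations. GI50 is the concentration that inhibits growth by half.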 Calls of active or inactive are those of the source. No stated cut-off is given here; in the data, active = GI50 up to about 1.1 µM and inactive = higher. Where a SMILES comes first, the peptide text is derived from it. [ ]: non-standard residue; d: D form. The star is where a group is joined. NMeF = CN[CH](Cc1ccccc1)C(=O)O; NMeV = CN[CH](C(=O)O)C(C)C; Boc = CC(C)(C)OC(=O)*; OBn = c1ccc(CO*)cc1

How the values were obtained:
Experiment in all cases: NCI-60 cell line screen, 48 h
SN12C = system: SN12C
HCT-116 = system: HCT-116
RPMI-8226 = system: RPMI-8226
SK-MEL-28 = system: SK-MEL-28
U-251 = system: U-251
RXF 393 = system: RXF 393
Malme-3M = system: Malme-3M
OVCAR-3 = system: OVCAR-3
IGROV-1 = system: IGROV-1
SR = system: SR
OVCAR-5 = system: OVCAR-5
NCI-H23 = system: NCI-H23
NCI-H522 = system: NCI-H522
M14 = system: M14
NCI/ADR-RES = system: NCI/ADR-RES
MDA-MB-231 = system: MDA-MB-231
MDA-N = system: MDA-N
T47D = system: T47D
PC-3 = system: PC-3
BT-549 = system: BT-549

Measured: GI50

COc1ccc(NC(=O)CC2SC(Nc3ccc(Cl)cc3C)=NC2=O)c([N+](=O)[O-])c1 (stereo not drawn)
inactive: SN12C > 100 µM | HCT-116 > 100 µM | RPMI-8226 > 100 µM | SK-MEL-28 > 100 µM | U-251 > 100 µM | RXF 393 > 100 µM | Malme-3M > 100 µM | OVCAR-3 > 100 µM | IGROV-1 > 100 µM | SR > 100 µM | OVCAR-5 > 100 µM | NCI-H23 > 100 µM | NCI-H522 > 100 µM | M14 > 100 µM

CCOC(=O)Cn1nc2ccc(Nc3c(C)[n+]([O-])c4cc(F)c(OCC)cc4[n+]3[O-])cc2n1
inactive: HCT-116 > 100 µM | RPMI-8226 > 100 µM | SK-MEL-28 > 100 µM | U-251 37.5 µM | RXF 393 20.7 µM | OVCAR-3 > 100 µM | NCI/ADR-RES > 100 µM | IGROV-1 > 100 µM | SR > 100 µM | OVCAR-5 > 100 µM | MDA-MB-231 46.8 µM | NCI-H23 > 100 µM | NCI-H522 > 100 µM | M14 > 100 µM | MDA-N > 100 µM | T47D > 100 µM | PC-3 > 100 µM

CCOC(OCC)[C@H](N)[C@@H](O)[C@@H](O)[C@H]1COC(C)(C)O1
inactive: SN12C > 100 µM | HCT-116 > 100 µM | RPMI-8226 > 100 µM | SK-MEL-28 > 100 µM | U-251 > 100 µM | Malme-3M > 100 µM | OVCAR-3 > 100 µM | NCI/ADR-RES > 100 µM | IGROV-1 > 100 µM | SR > 100 µM | OVCAR-5 > 100 µM | MDA-MB-231 > 100 µM | NCI-H23 > 100 µM | M14 > 100 µM | MDA-N > 100 µM | PC-3 > 100 µM

CCOC(=O)C1C(C(C)C)C2(C#N)C(=N)OC1(C)C2(C#N)C#N (stereo not drawn)
inactive: SN12C 65.8 µM | HCT-116 56 µM | RPMI-8226 32.8 µM | SK-MEL-28 > 100 µM | U-251 82.4 µM | RXF 393 36.3 µM | Malme-3M 40.8 µM | NCI/ADR-RES 45.5 µM | IGROV-1 88.3 µM | OVCAR-5 > 100 µM | MDA-MB-231 > 100 µM | NCI-H23 54.5 µM | NCI-H522 26 µM | M14 > 100 µM | MDA-N 16.2 µM | T47D 49.7 µM | PC-3 > 100 µM

Cc1cn(C2OC(C)(CO)C(O)C2O)c(=O)[nH]c1=O (stereo not drawn)
inactive: SN12C > 100 µM | HCT-116 > 100 µM | RPMI-8226 > 100 µM | SK-MEL-28 > 100 µM | U-251 > 100 µM | RXF 393 > 100 µM | Malme-3M > 100 µM | OVCAR-3 > 100 µM | IGROV-1 > 100 µM | SR > 100 µM | OVCAR-5 > 100 µM | NCI-H23 > 100 µM | NCI-H522 > 100 µM | M14 > 100 µM

COc1ccc2nc3ccc(OC)cc3c(SCc3ccc([N+](=O)[O-])cc3)c2c1
inactive: SN12C > 100 µM | HCT-116 70.3 µM | SK-MEL-28 > 100 µM | U-251 > 10 µM | RXF 393 > 100 µM | Malme-3M > 100 µM | OVCAR-3 63 µM | NCI/ADR-RES 67 µM | IGROV-1 63.5 µM | SR > 100 µM | OVCAR-5 > 100 µM | MDA-MB-231 39.2 µM | NCI-H23 50 µM | NCI-H522 17.3 µM | M14 > 100 µM | MDA-N > 100 µM | T47D > 100 µM | PC-3 68.2 µM

O=C(Nc1ccc(Cl)cc1C(F)(F)F)C(=O)C1CCCS1(=O)=O (stereo not drawn)
inactive: SN12C > 100 µM | HCT-116 > 100 µM | RPMI-8226 > 100 µM | SK-MEL-28 > 100 µM | U-251 > 100 µM | RXF 393 > 100 µM | Malme-3M > 100 µM | OVCAR-3 > 100 µM | IGROV-1 > 10 µM | SR > 100 µM | OVCAR-5 > 100 µM | NCI-H23 > 100 µM | M14 > 100 µM

O=Cc1ccccc1COC(=O)c1cc(C(=O)OCc2ccccc2C=O)c(C(=O)OCc2ccccc2C=O)cc1C(=O)OCc1ccccc1C=O
inactive: SN12C > 100 µM | HCT-116 31.9 µM | RPMI-8226 43.7 µM | SK-MEL-28 > 100 µM | U-251 47.1 µM | RXF 393 31.3 µM | Malme-3M > 100 µM | OVCAR-3 > 100 µM | IGROV-1 > 100 µM | SR 29.5 µM | OVCAR-5 > 100 µM | NCI-H23 > 100 µM | NCI-H522 > 100 µM | M14 > 100 µM

O=C1C2c3[nH]c4ccccc4c3C3CCCCC3C2C(=O)N1c1ccccc1 (stereo not drawn)
inactive: SN12C > 100 µM | RPMI-8226 > 100 µM | SK-MEL-28 > 100 µM | U-251 > 100 µM | RXF 393 19.6 µM | Malme-3M > 100 µM | OVCAR-3 73.6 µM | IGROV-1 72.1 µM | SR > 100 µM | OVCAR-5 > 100 µM | NCI-H23 > 100 µM | M14 36.6 µM

O=C1N(CN2CCOCC2)CN(CN2CCOCC2)C(=O)N1Cc1ccc(CN2C(=O)N(CN3CCOCC3)CN(CN3CCOCC3)C2=O)cc1
inactive: SN12C 59.8 µM | HCT-116 33.6 µM | RPMI-8226 22.7 µM | SK-MEL-28 31.3 µM | U-251 44.9 µM | OVCAR-3 31.6 µM | NCI/ADR-RES 49.9 µM | IGROV-1 > 100 µM | SR 46.9 µM | OVCAR-5 > 100 µM | MDA-MB-231 57.9 µM | NCI-H23 34.4 µM | NCI-H522 > 100 µM | M14 28.2 µM | MDA-N 31.7 µM | T47D 53 µM | PC-3 45.6 µM

N#CCCC(CC#N)N1CCN(C(CC#N)CCC#N)CC1 (stereo not drawn)
inactive: SN12C > 100 µM | HCT-116 > 100 µM | RPMI-8226 > 100 µM | SK-MEL-28 > 100 µM | U-251 > 100 µM | RXF 393 > 100 µM | Malme-3M > 100 µM | BT-549 > 100 µM | OVCAR-3 > 100 µM | NCI/ADR-RES > 100 µM | IGROV-1 > 100 µM | SR > 100 µM | OVCAR-5 > 100 µM | NCI-H23 > 100 µM | NCI-H522 > 100 µM | M14 > 100 µM | MDA-N > 100 µM | PC-3 > 100 µM

Cc1c(C)c([N+](=O)[O-])c2c(c1N)C(=O)c1ccccc1C2=O
inactive: SN12C > 100 µM | HCT-116 > 100 µM | RPMI-8226 > 100 µM | SK-MEL-28 > 100 µM | U-251 > 100 µM | RXF 393 > 100 µM | Malme-3M > 100 µM | OVCAR-3 24.8 µM | IGROV-1 > 100 µM | SR > 100 µM | OVCAR-5 > 100 µM | NCI-H23 > 100 µM | NCI-H522 61.7 µM | M14 > 100 µM

CCC1(CC)C(=O)NC(=O)NC1=S
inactive: SN12C > 100 µM | HCT-116 > 100 µM | RPMI-8226 > 100 µM | SK-MEL-28 > 100 µM | U-251 > 100 µM | RXF 393 > 100 µM | Malme-3M > 100 µM | OVCAR-3 > 100 µM | IGROV-1 > 100 µM | OVCAR-5 > 100 µM | NCI-H23 > 100 µM | NCI-H522 > 100 µM | M14 > 100 µM

CC(=O)O[C@]12CCCC1C1(O)C(O)CCCC12 (stereo partly drawn)
inactive: SN12C > 100 µM | HCT-116 > 100 µM | RPMI-8226 > 100 µM | SK-MEL-28 > 100 µM | U-251 > 100 µM | RXF 393 > 100 µM | Malme-3M > 100 µM | SR > 100 µM | NCI-H23 > 100 µM | NCI-H522 > 100 µM | M14 > 100 µM

NC1=NS(=O)(=O)Nc2nc(-c3ccc(Cl)cc3)[nH]c21
inactive: SN12C > 100 µM | HCT-116 > 100 µM | RPMI-8226 > 100 µM | SK-MEL-28 > 100 µM | U-251 > 100 µM | RXF 393 > 10 µM | Malme-3M > 100 µM | OVCAR-3 > 100 µM | IGROV-1 > 100 µM | SR > 100 µM | OVCAR-5 > 100 µM | NCI-H23 > 100 µM | NCI-H522 > 100 µM | M14 > 100 µM

CC(C)C(NC(=O)OC(C)(C)C)C(=O)N(C)C(Cc1ccccc1)C(=O)N(C)C(C(=O)N(C)C(C(=O)OCc1ccccc1)C(C)C)C(C)C (stereo not drawn) (Boc-V[NMeF][NMeV][NMeV]-OBn; configuration not given here)
inactive: SN12C > 100 µM | HCT-116 66.5 µM | RPMI-8226 10.3 µM | U-251 > 100 µM | Malme-3M 24.8 µM | OVCAR-3 > 100 µM | IGROV-1 > 100 µM | SR 20.8 µM | NCI-H23 > 100 µM | NCI-H522 16.7 µM | M14 62.8 µM

[O-][n+]1c2c([n+]([O-])c3ccccc31)CCCCCCCCCC2
inactive: SN12C > 100 µM | HCT-116 > 100 µM | RPMI-8226 > 100 µM | SK-MEL-28 > 100 µM | U-251 > 100 µM | Malme-3M > 100 µM | OVCAR-3 > 100 µM | IGROV-1 > 100 µM | SR 63.4 µM | NCI-H23 > 100 µM | NCI-H522 77.1 µM | M14 > 100 µM

Cc1cc2c3ccccc3[nH]c2c2ccnc(C)c12
inactive: SN12C 5.56 µM | HCT-116 2.21 µM | RPMI-8226 3.21 µM | SK-MEL-28 1.77 µM | U-251 2.24 µM | Malme-3M 13.5 µM | OVCAR-3 10.3 µM | NCI/ADR-RES 14.7 µM | IGROV-1 15.2 µM | SR 6.62 µM | OVCAR-5 7.36 µM | MDA-MB-231 4.08 µM | NCI-H23 12.5 µM | NCI-H522 2.65 µM | M14 1.84 µM | MDA-N 1.71 µM | T47D 16.7 µM | PC-3 10.2 µM
